Like-named read-outs stand apart in the source and are kept apart here.
Assays:
Type in all cases: in vivo
Sprague-Dawley rats [1] = conditions: tail vein
Sprague-Dawley rats [2] = test: Pharmacological effect and adverse reactions under the equivalent dose (2ED50), Group D compounds; conditions: for Righting reflex duration / Sedation duration / Onset time: 2ED50, tail vein, rats, n=8; for Adverse reaction: Convulsions / Adverse reaction: Cough, broken-winded / Adverse reaction: Euphoria / Adverse reaction: Four limbs rigidity / Adverse reaction: Red urine / Adverse reaction: Slower breathing, Tetany convulsion / Adverse reaction: Systemic stiffness, Convulsions, Opisthotonus / Adverse reaction: Tongue stretching / Adverse reaction: Tremor: equivalent dose (2 × ED50), number of rats of n = 8
Description: Evaluation index: onset time: from the completion of drug injection to the disappearance of forepaw righting reflex in rats; Duration of anesthesia: the time from the disappearance of rat forepaw righting reflex to the recovery of rat forepaw righting reflex; Recovery time of anesthesia: the time from the […] to complete recovery;

Sprague-Dawley rats [3] = test: animal or person; conditions: rats; for ED50: LORR, up and down method, tail vein, class symbols
Description: Evaluating indicator: The end point of anesthesia: the disappearance of forepaw righting reflex (lorr) was used as the end point of anesthesia; General anesthesia effect: the disappearance of forepaw righting reflex in rats lasting for 30 seconds is taken as the index of general anesthesia effect; Anesthesia recovery index: the recovery of rat forepaw righting reflex was used as the index of anesthesia recovery.

[4] = Rattus norvegicus, read-out: ED50

Compound | Minimal lethal dose (Sprague-Dawley rats [1]) | Righting reflex duration (Sprague-Dawley rats [2]) | Sedation duration (Sprague-Dawley rats [2]) | Onset time (Sprague-Dawley rats [2]; unit s) | Adverse reaction: Convulsions (Sprague-Dawley rats [2]) | Adverse reaction: Cough, broken-winded (Sprague-Dawley rats [2]) | Adverse reaction: Euphoria (Sprague-Dawley rats [2]) | Adverse reaction: Four limbs rigidity (Sprague-Dawley rats [2]) | Adverse reaction: Red urine (Sprague-Dawley rats [2]) | Adverse reaction: Slower breathing, Tetany convulsion (Sprague-Dawley rats [2]) | Adverse reaction: Systemic stiffness, Convulsions, Opisthotonus (Sprague-Dawley rats [2]) | Adverse reaction: Tongue stretching (Sprague-Dawley rats [2]) | Adverse reaction: Tremor (Sprague-Dawley rats [2]) | ED50 (Sprague-Dawley rats [3]; [4]) | Approximate therapeutic index (Sprague-Dawley rats [3]) | Onset time (Sprague-Dawley rats [2]; unit min) | ED50 (Sprague-Dawley rats [3])
COC(=O)C(=O)c1cncn1[C@H](C)c1ccccc1 [Compound D80] | >12.2 mg/kg | 1.58 ± 0.61 min | 6.42 ± 1.68 min | <30 s | 0 | 0 | 0 | 4 | 8 | 0 | 0 | 0 | 0 | > 6 mg/kg | >2.9 |  | 
COC(OC)(OC)C(=O)c1cnnn1[C@H](C)c1ccccc1 [Compound D42] | >1.8 mg/kg | 1.38 ± 0.15 min | 3.83 ± 0.74 min |  | 6 | 0 | 0 | 0 | 8 | 0 | 0 | 1 | 1 | 0.04 to 0.5 mg/kg | >4.2 | <60 s | 
C=CCOCC(OC)(OC)C(=O)c1cncn1[C@H](C)c1ccccc1 [Compound D75] | >11.2 mg/kg | 1.59 ± 0.67 min | 5.28 ± 0.68 min | <30 s | 0 | 0 | 0 | 0 | 8 | 0 | 0 | 0 | 0 |  | >5.4 |  | +++++ (+++++ indicates that the measured ED50 is greater than 6.00 mg/kg (excluding 6.00 mg/kg))
COC(OC)(OC)C(=O)c1c(F)ncn1[C@H](C)c1ccccc1 [Compound D93] | >1.8 mg/kg | 2.50 ± 0.30 min | 6.89 ± 0.80 min | <30 s | 0 | 0 | 0 | 0 | 8 | 0 | 8 | 1 | 0 | 0.04 to 0.5 mg/kg | >25.1 |  | 
C=CCOC(OC)(OC)C(=O)c1ccnn1[C@H](C)c1ccccc1 [Compound D7] | >3.2 mg/kg | 0.55 ± 0.59 min | 8.52 ± 2.29 min |  | 0 | 0 | 0 | 1 | 8 | 0 | 0 | 1 | 1 | 0.5 to 1 mg/kg | >5.4 | <60 s | 
CCOC(OC)(OC)C(=O)c1cncn1[C@H](C)c1ccccc1 [Compound D78] | >6.8 mg/kg | 4.02 ± 1.35 min | 7.29 ± 1.20 min | <30 s | 0 | 0 | 0 | 0 | 8 | 0 | 2 | 1 | 0 | 0.5 to 1 mg/kg | >6.2 |  | 
CCSC(OC)(OC)C(=O)c1ccnn1[C@H](C)c1ccccc1 [Compound D2] | >10.5 mg/kg | 5.82 ± 1.87 min | 13.71 ± 3.89 min |  | 0 | 2 | 3 | 0 | 8 | 1 | 0 | 2 | 8 | 2 to 6 mg/kg | >6.6 | <60 s | 
C#CCOCC(OC)(OC)C(=O)c1cncn1[C@H](C)c1ccccc1 [Compound D74] | >10.2 mg/kg | 1.29 ± 0.49 min | 4.78 ± 1.24 min |  | 0 | 0 | 0 | 1 | 8 | 0 | 0 | 0 | 1 |  | >16.6 | <60 s | +++++ (+++++ indicates that the measured ED50 is greater than 6.00 mg/kg (excluding 6.00 mg/kg))
COC(OC)(OCC(C)(C)C)C(=O)c1ccnn1[C@H](C)c1ccccc1 [Compound D6] | >12.4 mg/kg | 1.33 ± 0.19 min | 7.35 ± 1.45 min |  | 0 | 0 | 0 | 1 | 8 | 0 | 0 | 0 | 2 | 2 to 6 mg/kg | >7.3 | <60 s | 
CCOC(OC)(OCC)C(=O)c1cncn1[C@H](C)c1ccccc1 [Compound D79] | >2.7 mg/kg | 1.75 ± 0.76 min | 5.84 ± 1.46 min | <30 s | 6 | 0 | 0 | 0 | 8 | 0 | 0 | 0 | 1 | 0.5 to 1 mg/kg | >6.4 |  | 
COC(OC)C(=O)c1cncn1[C@H](C)c1ccccc1 [Compound D87] | >13.2 mg/kg | 4.34 ± 0.54 min | 8.26 ± 2.74 min | <30 s | 0 | 0 | 0 | 0 | 8 | 0 | 5 | 0 | 0 | 1 to 2 mg/kg | >6.8 |  | 
CCOC(OCC)C(=O)c1c(F)ncn1[C@H](C)c1ccccc1 [Compound D101] | >9.3 mg/kg | 1.80 ± 0.58 min | 7.20 ± 3.21 min | <30 s | 0 | 0 | 0 | 0 | 8 | 0 | 2 | 0 | 0 | 0.04 to 0.5 mg/kg | >10.5 |  | 
CC(C)CCOC(=O)C(=O)c1cncn1[C@H](C)c1ccccc1 [Compound D82] | >7.8 mg/kg | 0.98 ± 0.31 min | 6.70 ± 1.46 min |  | 0 | 0 | 0 | 2 | 8 | 0 | 0 | 1 | 0 | 2 to 6 mg/kg | >6.3 | <60 s | 
C[C@H](c1ccccc1)n1cncc1C(=O)C(=O)OCC(C)(C)C [Compound D86] | >9.8 mg/kg | 1.24 ± 0.12 min | 7.88 ± 1.94 min |  | 0 | 0 | 0 | 0 | 8 | 0 | 2 | 0 | 0 | 1 to 2 mg/kg | >7.3 | <60 s | 

From patent US12570612B2, “Substituted nitrogen heterocyclic compound and anesthetic effect thereof” (priority 2019, dated 2026)
